This note sets out measurements from ChEMBL document CHEMBL4482322, “Uses of tryptanthrin and derivative thereof in preparing hldo2 inhibitor” (2017).

Test [1] addresses T1, Indoleamine 2,3-dioxygenase 2 (Homo sapiens) (UniProt Q6ZQW0).
T1 sequence (whole entry): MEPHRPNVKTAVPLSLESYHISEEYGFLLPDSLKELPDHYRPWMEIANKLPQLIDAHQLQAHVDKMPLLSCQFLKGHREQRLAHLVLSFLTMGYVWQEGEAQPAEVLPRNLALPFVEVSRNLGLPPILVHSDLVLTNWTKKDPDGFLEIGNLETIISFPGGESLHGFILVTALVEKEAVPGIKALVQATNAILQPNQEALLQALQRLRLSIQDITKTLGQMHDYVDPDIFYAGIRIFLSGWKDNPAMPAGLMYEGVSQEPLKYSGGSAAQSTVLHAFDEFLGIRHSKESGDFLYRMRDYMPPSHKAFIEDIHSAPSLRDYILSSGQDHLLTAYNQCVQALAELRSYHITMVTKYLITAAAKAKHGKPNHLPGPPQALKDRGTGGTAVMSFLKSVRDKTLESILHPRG
As to the kind of experiment: Inhibition of human IDO2 at 10 uM using L-tryptophan as substrate incubated for 30 min assessed as reduction in conversion of N-formyl kynurenine to kynurenine relative to control.

The target in test [2] is T2, Indoleamine 2,3-dioxygenase 1 (Homo sapiens, UniProt P14902). As to the kind of experiment: Inhibition of IDO1 in human U87MG cells in presence of L-tryptophan incubated for 24 h. It counts as cell-based.
T2 sequence (P14902 whole entry): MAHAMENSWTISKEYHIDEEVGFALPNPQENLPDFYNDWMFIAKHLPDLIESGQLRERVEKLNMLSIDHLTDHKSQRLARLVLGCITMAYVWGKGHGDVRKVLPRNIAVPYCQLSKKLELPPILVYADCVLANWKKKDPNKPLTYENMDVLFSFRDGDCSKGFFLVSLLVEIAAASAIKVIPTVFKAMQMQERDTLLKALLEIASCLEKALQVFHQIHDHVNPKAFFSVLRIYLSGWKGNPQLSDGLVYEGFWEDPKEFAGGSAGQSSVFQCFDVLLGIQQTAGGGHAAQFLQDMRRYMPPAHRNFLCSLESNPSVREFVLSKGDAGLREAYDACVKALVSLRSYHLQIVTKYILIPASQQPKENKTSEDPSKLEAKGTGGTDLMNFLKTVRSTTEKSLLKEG
Test [3] addresses T3, Indoleamine 2,3-dioxygenase 2 (Homo sapiens, UniProt Q6ZQW0).
T3 sequence (Q6ZQW0 whole entry): T1 sequence (whole entry)
As to the kind of experiment: Inhibition of human IDO2 using L-tryptophan as substrate assessed as reduction in conversion of N-formyl kynurenine to kynurenine.

Test [4] addresses T2, Indoleamine 2,3-dioxygenase 1. As to the kind of experiment: Inhibition of IDO1 (unknown origin) using L-tryptophan as substrate incubated for 30 min assessed as reduction in conversion of N-formyl kynurenine to kynurenine by dixon plot analysis.

Each structure is given as a SMILES string.

As to `Cn1cc(C[C@H](N)C(=O)O)c2ccccc21`, in test [1], the inhibition came out at 8%.
As to `Cc1ccc2c(c1)C(=O)c1nc3ccccc3c(=O)n1-2`, in test [1], the inhibition fell in the range of 18 to 47%. Besides, in test [2], the IC50 is above 3.9 mM.
Consider `O=C1c2ccc(Cl)cc2-n2c1nc1ccccc1c2=O`, for which the inhibition in test [1] is 18 to 47%.
Consider `O=C1c2cc(Br)ccc2-n2c1nc1ccccc1c2=O`, for which the inhibition in test [1] is 18 to 47%.
Turning to `O=C1c2cc([N+](=O)[O-])ccc2-n2c1nc1ccccc1c2=O`, in test [1], the inhibition worked out at 63%. Also, in test [3], the IC50 is 0.00187 mM.
As for `O=C1c2cc(F)ccc2-n2c1nc1ccc(F)cc1c2=O`, the inhibition in test [1] was 18 to 47%.
On the same count and under the same terms, with `O=C1c2cc(F)ccc2-n2c1nc1ccccc1c2=O` the figure was 18 to 47%; with `Cn1cc(C[C@@H](N)C(=O)O)c2ccccc21`, 8%; with `O=C1c2c(Cl)cccc2-n2c1nc1ccccc1c2=O`, 18 to 47%.
Still for that read-out and setting: with `O=C1c2ccccc2-n2c1nc1ccccc1c2=O` the figure was 18 to 47%.
Regarding `O=C1c2ccccc2-n2c1nc1ccc(F)cc1c2=O`, in test [1], the inhibition was 18 to 47%. In addition, the Ki in test [4] is above 3.9 mM. The IC50 in test [2] is above 3.9 mM.
